Measurements reported in the supplement of paper PMC10307832.

Experiments:
Assay in all cases: relative viability (nuclei count vs DMSO), 5 days (fraction); higher = more cells survive
[1] = compound: C1CNCCC1C2=CC(=NN2)C3=CC=NC=C3 + Cc1nc(NC(=O)N2CCC[C@H]2C(N)=O)sc1-c1ccnc(C(C)(C)C(F)(F)F)c1 [Alpelisib] (partner 2 µM)
Procedure, shortened: (§1)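 Cells from lung cancer lines were seeded into 1536-well plates and, one day later, dosed by pin tool. Treatments were either a single drug or a fixed dose of an anchor drug with five library-drug doses (not always all listed) in √10 steps. After 5 days, nuclei were stained in a one-step fixation (final 0.05% Triton X-100, 1% formaldehyde, 1 ug/ml Hoechst) and counted on 4× images, and relative viability is the treated-to-vehicle nuclei ratio, as the median of duplicate plates.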

[2] = compound: C[C@@H](N)c1ccc(C(=O)Nc2ccnc3[nH]ccc23)cc1 + Nc1ncn([C@H]2C[C@H](O)[C@@H](CO)O2)c(=O)n1 [Decitabine] (partner 2 µM)
Procedure, shortened: as §1

Tanzisertib + Pictilisib = compound: O[C@H]1CC[C@H](Nc2ncc3nc(Nc4c(F)cc(F)cc4F)n([C@H]4CCOC4)c3n2)CC1 [Tanzisertib] + CS(=O)(=O)N1CCN(Cc2cc3nc(-c4cccc5[nH]ncc45)nc(N4CCOCC4)c3s2)CC1 [Pictilisib] (partner 1 µM)
Procedure, shortened: as §1

Tanzisertib + Phenformin = compound: O[C@H]1CC[C@H](Nc2ncc3nc(Nc4c(F)cc(F)cc4F)n([C@H]4CCOC4)c3n2)CC1 [Tanzisertib] + N=C(N)NC(=N)NCCc1ccccc1 [Phenformin] (partner 250 µM)
Procedure, shortened: as §1

| Cell Line | relative viability ([1]; first compound 0.08 µM) | relative viability ([1]; first compound 0.8 µM) | relative viability ([1]; first compound 2.53 µM) | relative viability ([1]; first compound 8 µM) | relative viability ([2]; first compound 0.04 µM) | relative viability ([2]; first compound 0.1265 µM) | relative viability ([2]; first compound 1.265 µM) | relative viability ([2]; first compound 4 µM) | relative viability (Tanzisertib + Pictilisib; first compound 0.08 µM) | relative viability (Tanzisertib + Pictilisib; first compound 0.253 µM) | relative viability (Tanzisertib + Pictilisib; first compound 0.8 µM) | relative viability (Tanzisertib + Pictilisib; first compound 2.53 µM) | relative viability (Tanzisertib + Pictilisib; first compound 8 µM) | relative viability (Tanzisertib + Phenformin; first compound 0.08 µM) | relative viability (Tanzisertib + Phenformin; first compound 0.253 µM) | relative viability (Tanzisertib + Phenformin; first compound 0.8 µM) | relative viability (Tanzisertib + Phenformin; first compound 2.53 µM) | relative viability (Tanzisertib + Phenformin; first compound 8 µM) | relative viability ([2]; first compound 0.4 µM) |
| --- | --- | --- | --- | --- | --- | --- | --- | --- | --- | --- | --- | --- | --- | --- | --- | --- | --- | --- | --- |
| NCI-H1993 | 0.654 | 0.668 | 0.699 | 0.669 | 0.649 | 0.603 | 0.636 | 0.69 | 0.875 | 0.873 | 0.774 | 1.09 | 0.844 | 0.484 | 0.508 | 0.49 | 0.491 | 0.537 |  |
| LK-2 | 1.09 | 1.11 | 1.21 | 1.24 | 0.351 | 0.287 | 0.237 | 0.352 | 0.515 | 0.578 | 0.477 | 0.463 | 0.435 | 0.77 | 0.517 | 0.559 | 0.548 | 0.228 | 0.359 |
| HCC-78 | 0.344 |  | 0.37 | 0.411 | 0.772 | 0.782 | 0.725 | 0.62 | 0.215 | 0.175 | 0.23 | 0.219 | 0.192 | 0.739 | 0.848 | 0.782 | 0.597 | 0.512 | 0.83 |
| NCI-H2405 | 0.792 | 0.62 | 0.875 | 0.686 |  | 0.801 | 0.448 | 0.248 | 0.438 | 0.422 | 0.49 | 0.421 | 0.323 | 0.454 | 0.393 | 0.426 | 0.385 | 0.345 | 0.695 |
| HOP-62 | 0.734 | 0.933 | 1.11 | 0.858 | 0.21 | 0.225 | 0.206 | 0.207 | 0.851 | 0.874 | 0.856 | 0.871 | 0.341 | 0.758 | 0.709 | 0.671 | 0.671 | 0.729 | 0.241 |
| NCI-H650 | 0.86 | 1.08 | 1.22 | 0.997 |  | 0.3 |  | 0.3 | 0.843 | 0.825 | 0.858 | 0.957 | 0.963 | 0.472 | 0.476 | 0.461 | 0.526 | 0.327 | 0.369 |
| NCI-H358 | 0.588 | 0.831 | 0.839 | 0.845 | 0.232 | 0.222 | 0.19 | 0.207 | 0.393 | 0.389 | 0.331 | 0.293 | 0.332 | 0.361 | 0.318 | 0.322 | 0.271 | 0.212 | 0.191 |
| BEN | 0.712 | 1.07 | 0.936 | 0.984 | 0.53 | 0.732 | 0.757 | 0.568 | 0.577 | 0.555 | 0.612 | 0.561 | 0.48 | 0.254 | 0.235 | 0.275 | 0.266 | 0.255 | 0.822 |
| SW 1573 | 0.722 | 0.625 | 0.774 | 0.755 | 0.569 | 0.577 | 0.497 | 0.301 | 0.63 | 0.373 | 0.481 | 0.584 | 0.505 | 0.457 | 0.305 | 0.347 | 0.417 | 0.356 | 0.567 |
| SK-MES-1 | 0.961 | 0.688 | 0.903 | 0.885 | 0.341 | 0.309 | 0.322 | 0.314 | 0.378 | 0.338 | 0.366 | 0.34 | 0.245 | 0.683 | 0.637 | 0.663 | 0.645 | 0.632 | 0.32 |
| NCI-H1755 | 0.938 | 0.837 | 0.906 | 0.863 | 0.728 | 0.728 | 0.76 | 0.684 | 0.47 | 0.456 | 0.433 | 0.429 | 0.331 | 0.692 | 0.612 | 0.595 | 0.649 | 0.632 | 0.712 |
| NCI-H2023 | 0.539 | 0.5 | 0.573 | 0.613 | 0.252 | 0.243 | 0.222 | 0.159 | 0.259 | 0.197 | 0.246 | 0.243 | 0.233 | 0.427 | 0.37 | 0.407 | 0.411 | 0.404 | 0.245 |
| LC-2-ad | 0.791 | 0.751 | 0.913 | 0.934 | 0.935 | 0.775 | 0.775 | 0.563 | 0.506 | 0.426 | 0.458 | 0.0954 | 0.359 | 0.648 | 0.58 | 0.638 | 0.651 | 0.433 | 0.827 |
| NCI-H1666 | 0.907 | 0.849 | 1.18 | 1.13 | 0.83 | 0.768 | 0.781 | 0.855 | 0.494 | 0.588 | 0.414 | 0.546 | 0.439 | 0.595 | 0.602 | 0.56 | 0.607 | 0.59 | 0.865 |
| 201T | 1.06 | 0.841 | 1.04 | 1.04 | 0.846 | 0.853 | 0.979 | 0.941 | 0.748 | 0.676 | 0.684 | 0.687 | 0.649 | 0.454 | 0.501 | 0.477 | 0.459 | 0.386 | 0.851 |
| NCI-H2009 | 1.25 | 1.16 | 1.13 | 1.14 | 0.318 | 0.391 | 0.346 | 0.351 | 0.965 | 0.794 | 0.972 | 0.882 | 0.563 | 0.52 | 0.483 | 0.515 | 0.593 | 0.553 | 0.355 |
| NCI-H1395 | 0.977 | 0.77 | 1.46 | 0.975 | 0.712 | 0.697 |  | 0.642 | 0.592 | 0.735 | 0.568 | 0.589 | 0.533 | 0.481 | 0.454 | 0.427 | 0.456 | 0.396 | 0.725 |
